ChEMBL document CHEMBL1201862, “PubChem BioAssay data set” (2004)
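In this assay, cells in 96-well plates receive the compound at five concentrations for 48 hours. Endpoints are linearly interpolated between the surrounding concentrations. At the GI50, growth is halved.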 Activity calls are given as the source filed them. No stated cut-off is given here; in the data, active = GI50 up to about 1.1 µM and inactive = higher.

Key:
Experiment in all cases: NCI anticancer screen, dose series, 48 h
[1] = tested on: CAKI-1
[2] = tested on: SK-MEL-2
[3] = tested on: MCF7
[4] = tested on: NCI-H522
[5] = tested on: M14
[6] = tested on: HT-29
[7] = tested on: SK-OV-3
[8] = tested on: Malme-3M
[9] = tested on: RXF 393
[10] = tested on: CCRF-CEM
[11] = tested on: UACC-62
[12] = tested on: NCI/ADR-RES
[13] = tested on: EKVX
[14] = tested on: OVCAR-3
[15] = tested on: NCI-H226
[16] = tested on: ACHN
[17] = tested on: PC-3
[18] = tested on: MDA-N
[19] = tested on: COLO 205
[20] = tested on: OVCAR-8

Structure (SMILES)	GI50 [1]	GI50 [2]	GI50 [3]	GI50 [4]	GI50 [5]	GI50 [6]	GI50 [7]	GI50 [8]	GI50 [9]	GI50 [10]	GI50 [11]	GI50 [12]	GI50 [13]	GI50 [14]	GI50 [15]	GI50 [16]	GI50 [17]	GI50 [18]	GI50 [19]	GI50 [20]
Sc1nnc(SCc2ccccc2Cl)c2nc[nH]c12	> 100 µM (inactive)	> 100 µM (inactive)	> 100 µM (inactive)	> 100 µM (inactive)	> 100 µM (inactive)	> 100 µM (inactive)	> 100 µM (inactive)	> 100 µM (inactive)	> 100 µM (inactive)	> 100 µM (inactive)	> 100 µM (inactive)	> 100 µM (inactive)	74.8 µM (inactive)	> 100 µM (inactive)	> 100 µM (inactive)	> 100 µM (inactive)	> 100 µM (inactive)	> 100 µM (inactive)	> 100 µM (inactive)	> 100 µM (inactive)
O=C(/C=C/c1ccccc1)CSc1nc2ccc(I)cc2c(=O)n1Cc1ccccc1	1.71 µM (inactive)	28.4 µM (inactive)	28.6 µM (inactive)	12.3 µM (inactive)	55.1 µM (inactive)	26.3 µM (inactive)	29.6 µM (inactive)	23.6 µM (inactive)	17 µM (inactive)	11.3 µM (inactive)	35.2 µM (inactive)	14 µM (inactive)	7.18 µM (inactive)	12.4 µM (inactive)	12.7 µM (inactive)	7.64 µM (inactive)	18.3 µM (inactive)	30.8 µM (inactive)	17.5 µM (inactive)	25.5 µM (inactive)
Cc1cccc(/C=N\NC(=S)N2CCCCC2)n1	0.126 µM (active)	0.612 µM (active)	< 0.01 µM (active)	< 0.01 µM (active)	< 0.01 µM (active)	< 0.01 µM (active)	0.685 µM (active)	0.867 µM (active)	0.145 µM (active)	< 0.01 µM (active)	0.383 µM (active)	0.0205 µM (active)	0.673 µM (active)	< 0.01 µM (active)	0.184 µM (active)	0.159 µM (active)	0.0435 µM (active)	0.306 µM (active)	< 0.01 µM (active)	0.036 µM (active)
COc1ccc(N[C@H]([C@@H](c2ccccc2)[S+]([O-])c2ccc(C)cc2)C(F)(F)F)cc1 (stereo not given in full)	46.7 µM (inactive)	40 µM (inactive)	38.9 µM (inactive)	56.5 µM (inactive)	45.6 µM (inactive)	31.8 µM (inactive)	> 100 µM (inactive)	75.2 µM (inactive)	53.5 µM (inactive)	21.8 µM (inactive)	29.1 µM (inactive)	87.3 µM (inactive)	44 µM (inactive)	> 100 µM (inactive)	48.4 µM (inactive)	35 µM (inactive)	21.1 µM (inactive)	74.8 µM (inactive)	37.2 µM (inactive)	80.9 µM (inactive)
COC(=O)N/N=C(/CC1(O)C(=O)Nc2ccc([N+](=O)[O-])cc21)c1ccccc1 (stereo not given)	75.7 µM (inactive)	31.2 µM (inactive)	1.19 µM (inactive)	43.9 µM (inactive)	34 µM (inactive)	31.4 µM (inactive)	66.4 µM (inactive)	33 µM (inactive)	22 µM (inactive)	29.6 µM (inactive)	24.7 µM (inactive)	21.8 µM (inactive)	> 54.1 µM (inactive)	44.3 µM (inactive)	40.9 µM (inactive)	33.3 µM (inactive)	38.8 µM (inactive)	39.4 µM (inactive)	50.7 µM (inactive)	29.4 µM (inactive)
COC12COC(=O)C1C(c1ccc3c(c1)OCO3)c1cc3c(cc1O2)OCO3 (stereo not given)	> 73.8 µM (inactive)	17.6 µM (inactive)	14.3 µM (inactive)	6.14 µM (inactive)	13 µM (inactive)	6.44 µM (inactive)	14.2 µM (inactive)	40.7 µM (inactive)	10.3 µM (inactive)	8.57 µM (inactive)	15.8 µM (inactive)	5.3 µM (inactive)	37.1 µM (inactive)	9.62 µM (inactive)	34.3 µM (inactive)	29.1 µM (inactive)	12.6 µM (inactive)	2.69 µM (inactive)	9.42 µM (inactive)	26.1 µM (inactive)
C/C(=N\Nc1nc2ccccc2[nH]1)c1cccc[n+]1[O-]	34.5 µM (inactive)	> 100 µM (inactive)	> 100 µM (inactive)	> 100 µM (inactive)	> 100 µM (inactive)	32.1 µM (inactive)	> 100 µM (inactive)	52.7 µM (inactive)	45.2 µM (inactive)	> 100 µM (inactive)	87.1 µM (inactive)	38.5 µM (inactive)	3.03 µM (inactive)	37.6 µM (inactive)	45.4 µM (inactive)	71 µM (inactive)	> 100 µM (inactive)	> 100 µM (inactive)	65.8 µM (inactive)	> 100 µM (inactive)
N=C(N)N/N=C/c1c(Cl)nc2sccn12	52.6 µM (inactive)	> 10 µM (inactive)	26.9 µM (inactive)	27 µM (inactive)	15.5 µM (inactive)	17.3 µM (inactive)	60.1 µM (inactive)	23.3 µM (inactive)	28.2 µM (inactive)	21.1 µM (inactive)	31.8 µM (inactive)	55.2 µM (inactive)	42.9 µM (inactive)	24.1 µM (inactive)	25.4 µM (inactive)	16.8 µM (inactive)	30.4 µM (inactive)	30.1 µM (inactive)	14.9 µM (inactive)	50.4 µM (inactive)
